The source of these data is patent publication US20260297081A1, “COMPOUNDS AND METHODS OF TREATING CANCERS” (Cullgen Inc., priority 2023, published 2026).

The test has as its target CDK4 (Homo sapiens, UniProt P11802+Q16531). As to the kind of experiment: HiBiT detection of HiBiT-tagged CDK4 protein level in MCF7 cells, 16 hours (Table 8). Type of test: cell-based. On the set-up: expressed in transfected cells; host or cells: MCF7. The settings on record: MCF7 cells stably expressing HiBiT tagged target proteins; for activity at 0.01 µM: 10 nM, read-out: % CDK4 Relative Level (10 nM); for activity at 0.1 µM: 100 nM, read-out: % CDK4 Relative Level (100 nM). Here is the method:
HiBiT detection system quantitatively measures total amounts of HiBiT-tagged proteins using a luminescent based method. MCF7 cells stably expressing HiBiT tagged target proteins were treated with heterobifunctional compounds at indicated concentrations for 16 hours, then lysed with Nano-Glo HiBiT Lytic detection reagents.

Chain of CDK4 (P11802 whole entry): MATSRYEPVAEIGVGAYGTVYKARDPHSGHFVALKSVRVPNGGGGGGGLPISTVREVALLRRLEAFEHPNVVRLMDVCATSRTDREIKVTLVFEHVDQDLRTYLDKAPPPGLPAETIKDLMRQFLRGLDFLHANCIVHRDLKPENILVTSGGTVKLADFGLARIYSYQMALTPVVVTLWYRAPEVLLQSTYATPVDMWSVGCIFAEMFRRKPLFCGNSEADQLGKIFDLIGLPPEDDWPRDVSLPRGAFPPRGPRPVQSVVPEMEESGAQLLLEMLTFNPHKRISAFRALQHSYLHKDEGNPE
Chain of CDK4 (P24385 whole entry partner): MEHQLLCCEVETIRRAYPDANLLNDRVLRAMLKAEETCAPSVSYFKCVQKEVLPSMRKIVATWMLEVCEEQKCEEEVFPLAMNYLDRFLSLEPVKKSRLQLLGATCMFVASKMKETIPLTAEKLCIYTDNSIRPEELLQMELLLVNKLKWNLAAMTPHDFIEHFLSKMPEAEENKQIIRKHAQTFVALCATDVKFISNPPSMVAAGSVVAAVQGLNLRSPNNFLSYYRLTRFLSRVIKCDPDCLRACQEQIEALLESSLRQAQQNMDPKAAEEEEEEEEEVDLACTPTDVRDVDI
Chain of CDK4 (Q16531 2-1140 limits assumed): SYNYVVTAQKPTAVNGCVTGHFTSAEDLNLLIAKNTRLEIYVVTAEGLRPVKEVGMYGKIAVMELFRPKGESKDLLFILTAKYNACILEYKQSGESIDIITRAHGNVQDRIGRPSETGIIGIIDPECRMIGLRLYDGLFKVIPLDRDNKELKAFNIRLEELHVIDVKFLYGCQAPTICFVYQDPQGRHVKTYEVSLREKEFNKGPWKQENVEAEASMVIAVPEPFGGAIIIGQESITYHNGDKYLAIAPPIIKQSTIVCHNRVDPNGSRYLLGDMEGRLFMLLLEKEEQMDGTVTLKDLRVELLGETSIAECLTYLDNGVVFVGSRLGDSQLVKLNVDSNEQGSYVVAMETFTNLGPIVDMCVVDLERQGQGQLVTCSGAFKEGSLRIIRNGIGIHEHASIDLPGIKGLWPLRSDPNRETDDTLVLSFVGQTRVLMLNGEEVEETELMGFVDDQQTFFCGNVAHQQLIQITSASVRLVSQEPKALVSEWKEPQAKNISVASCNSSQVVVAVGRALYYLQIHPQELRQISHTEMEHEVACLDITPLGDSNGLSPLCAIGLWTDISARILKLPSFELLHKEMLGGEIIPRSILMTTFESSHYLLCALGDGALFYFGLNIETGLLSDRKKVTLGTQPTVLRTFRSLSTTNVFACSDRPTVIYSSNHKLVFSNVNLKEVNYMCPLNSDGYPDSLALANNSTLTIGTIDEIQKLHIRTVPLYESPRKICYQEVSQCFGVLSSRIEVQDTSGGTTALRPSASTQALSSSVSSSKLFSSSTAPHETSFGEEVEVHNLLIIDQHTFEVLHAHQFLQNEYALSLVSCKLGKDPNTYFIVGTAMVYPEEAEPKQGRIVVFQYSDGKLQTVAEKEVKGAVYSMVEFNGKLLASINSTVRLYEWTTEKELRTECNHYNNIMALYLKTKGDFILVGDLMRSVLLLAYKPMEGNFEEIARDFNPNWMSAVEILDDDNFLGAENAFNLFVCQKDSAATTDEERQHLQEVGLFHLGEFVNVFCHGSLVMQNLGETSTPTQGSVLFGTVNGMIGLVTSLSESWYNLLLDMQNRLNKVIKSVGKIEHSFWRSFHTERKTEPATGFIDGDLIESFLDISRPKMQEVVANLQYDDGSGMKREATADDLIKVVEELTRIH

Take `CNc1ccc(C(=O)Nc2ccc(N(C)C)nn2)c(NCC(=O)N2CCN(Cc3ccc(Nc4ncc(F)c(-c5cc(F)c6nc(C)n(C(C)C)c6c5)n4)nc3)CC2)n1` [CPD-656, N-(6-(dimethylamino)pyridazin-3-yl)-2-((2-(4-((6-((5-fluoro-4-(4-fluoro-1-isopropyl-2-methyl-1H-benzo[d]imidazol-6-yl)pyrimidin-2-yl)amino)pyridin-3-yl)methyl)piperazin-1-yl)-2-oxoethyl)amino)-6-(methylamino)nicotinamide]: the activity at 0.01 µM is over 85% and the activity at 0.1 µM is over 85%.

With `CNc1ccc(C(=O)Nc2ccc(N(C)C)nn2)c(NCCCCCCC(=O)N2CCN(c3ccc(Nc4ncc(F)c(-c5cc(F)c6nc(C)n(C(C)C)c6c5)n4)nc3)CC2)n1` [CPD-652, N-(6-(dimethylamino)pyridazin-3-yl)-2-((7-(4-(6-((5-fluoro-4-(4-fluoro-1-isopropyl-2-methyl-1H-benzo[d]imidazol-6-yl)pyrimidin-2-yl)amino)pyridin-3-yl)piperazin-1-yl)-7-oxoheptyl)amino)-6-(methylamino)nicotinamide], the activity at 0.01 µM was over 85% and the activity at 0.1 µM is over 85%.

As for `CNc1ccc(C(=O)Nc2ccc(N(C)C)nn2)c(NCCC(=O)N2CCN(c3ccc(Nc4ncc(F)c(-c5cc(F)c6nc(C)n(C(C)C)c6c5)n4)nc3)CC2)n1` [CPD-648, N-(6-(dimethylamino)pyridazin-3-yl)-2-((3-(4-(6-((5-fluoro-4-(4-fluoro-1-isopropyl-2-methyl-1H-benzo[d]imidazol-6-yl)pyrimidin-2-yl)amino)pyridin-3-yl)piperazin-1-yl)-3-oxopropyl)amino)-6-(methylamino)nicotinamide], the activity at 0.01 µM was over 85% and the activity at 0.1 µM is over 85%.

As for `CNc1ccc(C(=O)Nc2ccc(N(C)C)nn2)c(NCCNC(=O)CN2CCN(c3ccc(Nc4ncc5cc(C(=O)N(C)C)n(C6CCCC6)c5n4)nc3)CC2)n1` [CPD-624, 7-cyclopentyl-2-((5-(4-(2-((2-((3-((6-(dimethylamino)pyridazin-3-yl)carbamoyl)-6-(methylamino)pyridin-2-yl)amino)ethyl)amino)-2-oxoethyl)piperazin-1-yl)pyridin-2-yl)amino)-N,N-dimethyl-7H-pyrrolo[2,3-d]pyrimidine-6-carboxamide], the activity at 0.01 µM lay within 55 to 85% and the activity at 0.1 µM was 55 to 85%.

For the molecule `CNc1ccc(C(=O)Nc2ccc(N(C)C)nn2)c(NCCCCCC(=O)N2CCN(c3ccc(Nc4ncc(F)c(-c5cc(F)c6nc(C)n(C(C)C)c6c5)n4)nc3)CC2)n1` [CPD-651, N-(6-(dimethylamino)pyridazin-3-yl)-2-((6-(4-(6-((5-fluoro-4-(4-fluoro-1-isopropyl-2-methyl-1H-benzo[d]imidazol-6-yl)pyrimidin-2-yl)amino)pyridin-3-yl)piperazin-1-yl)-6-oxohexyl)amino)-6-(methylamino)nicotinamide], the activity at 0.01 µM was over 85% and the activity at 0.1 µM was over 85%.

On to `CNc1ccc(C(=O)Nc2ccc(N(C)C)nn2)c(NCCCCCC(=O)NC2CCC(Nc3ncc4ccc(=O)n(C5CCCC5)c4n3)CC2)n1` (stereo not shown) [CPD-669, 2-((6-((4-((8-cyclopentyl-7-oxo-7,8-dihydropyrido[2,3-d]pyrimidin-2-yl)amino)cyclohexyl)amino)-6-oxohexyl)amino)-N-(6-(dimethylamino)pyridazin-3-yl)-6-(methylamino)nicotinamide], for which the activity at 0.01 µM was over 85% and the activity at 0.1 µM was over 85%.

As to `CNc1ccc(C(=O)Nc2ccc(N(C)C)nn2)c(NCCC(=O)NC2CCC3(CC2)CC(Nc2ncc4ccc(=O)n(C5CCCC5)c4n2)C3)n1` (stereo not shown) [CPD-673, 2-((3-((2-((8-cyclopentyl-7-oxo-7,8-dihydropyrido[2,3-d]pyrimidin-2-yl)amino)spiro[3.5]nonan-7-yl)amino)-3-oxopropyl)amino)-N-(6-(dimethylamino)pyridazin-3-yl)-6-(methylamino)nicotinamide], the activity at 0.01 µM was over 85% and the activity at 0.1 µM is over 85%.

As to `CNc1ccc(C(=O)Nc2ccc(N(C)C)nn2)c(NCCOCCC(=O)N2CCN(c3ccc(Nc4ncc5cc6n(c5n4)C4(CCCCC4)CNC6=O)nc3)CC2)n1` [CPD-638], the activity at 0.01 µM is over 85% and the activity at 0.1 µM is over 85%.

Turning to `CC(C)Nc1ccc(C(=O)Nc2ccc(N(C)C)nn2)c(NC2CC3(CC(NC(=O)CN4CCN(Cc5ccc(Nc6ncc7cc(C(=O)N(C)C)n(C8CCCC8)c7n6)nc5)CC4)C3)C2)n1` (stereo not shown) [CPD-562, 7-cyclopentyl-2-((5-((4-(2-((6-((3-((6-(dimethylamino)pyridazin-3-yl)carbamoyl)-6-(isopropylamino)pyridin-2-yl)amino)spiro[3.3]heptan-2-yl)amino)-2-oxoethyl)piperazin-1-yl)methyl)pyridin-2-yl)amino)-N,N-dimethyl-7H-pyrrolo[2,3-d]pyrimidine-6-carboxamide], the activity at 0.01 µM was over 85% and the activity at 0.1 µM is over 85%.

`CNc1ccc(C(=O)Nc2ccc(N(C)C)nn2)c(NCCCC(=O)N2CCN(c3ccc(Nc4ncc(F)c(-c5cc(F)c6nc(C)n(C(C)C)c6c5)n4)nc3)CC2)n1` [CPD-649, N-(6-(dimethylamino)pyridazin-3-yl)-2-((4-(4-(6-((5-fluoro-4-(4-fluoro-1-isopropyl-2-methyl-1H-benzo[d]imidazol-6-yl)pyrimidin-2-yl)amino)pyridin-3-yl)piperazin-1-yl)-4-oxobutyl)amino)-6-(methylamino)nicotinamide]: the activity at 0.01 µM is over 85% and the activity at 0.1 µM is over 85%.

As to `CNc1ccc(C(=O)Nc2ccc(N(C)C)nn2)c(NCCCCCCC(=O)N2CCN(Cc3ccc(Nc4ncc(F)c(-c5cc(F)c6nc(C)n(C(C)C)c6c5)n4)nc3)CC2)n1` [CPD-604, N-(6-(dimethylamino)pyridazin-3-yl)-2-((7-(4-((6-((5-fluoro-4-(4-fluoro-1-isopropyl-2-methyl-1H-benzo[d]imidazol-6-yl)pyrimidin-2-yl)amino)pyridin-3-yl)methyl)piperazin-1-yl)-7-oxoheptyl)amino)-6-(methylamino)nicotinamide], the activity at 0.01 µM was over 85% and the activity at 0.1 µM was over 85%.

Take `CNc1ccc(C(=O)Nc2ccc(N(C)C)nn2)c(NCCOCCC(=O)N2CCN(c3ccc(Nc4ncc(F)c(-c5cc(F)c6nc(C)n(C(C)C)c6c5)n4)nc3)CC2)n1` [CPD-654, N-(6-(dimethylamino)pyridazin-3-yl)-2-((2-(3-(4-(6-((5-fluoro-4-(4-fluoro-1-isopropyl-2-methyl-1H-benzo[d]imidazol-6-yl)pyrimidin-2-yl)amino)pyridin-3-yl)piperazin-1-yl)-3-oxopropoxy)ethyl)amino)-6-(methylamino)nicotinamide]: the activity at 0.01 µM is over 85% and the activity at 0.1 µM was over 85%.

On to `CC(C)Nc1ccc(C(=O)Nc2ccc(N(C)C)nn2)c(NC2CC3(C2)CN(C(=O)CN2CCN(Cc4ccc(Nc5ncc6cc(C(=O)N(C)C)n(C7CCCC7)c6n5)nc4)CC2)C3)n1` [CPD-563, 7-cyclopentyl-2-((5-((4-(2-(6-((3-((6-(dimethylamino)pyridazin-3-yl)carbamoyl)-6-(isopropylamino)pyridin-2-yl)amino)-2-azaspiro[3.3]heptan-2-yl)-2-oxoethyl)piperazin-1-yl)methyl)pyridin-2-yl)amino)-N,N-dimethyl-7H-pyrrolo[2,3-d]pyrimidine-6-carboxamide], for which the activity at 0.01 µM was over 85% and the activity at 0.1 µM was over 85%.

Take `CNc1ccc(C(=O)Nc2ccc(N(C)C)nn2)c(NCCCNC(=O)CN2CCN(c3ccc(Nc4ncc5cc6n(c5n4)C4(CCCCC4)CNC6=O)nc3)CC2)n1` [CPD-641, N-(6-(dimethylamino)pyridazin-3-yl)-6-(methylamino)-2-((3-(2-(4-(6-((6′-oxo-7′,8′-dihydro-6′H-spiro[cyclohexane-1,9′-pyrazino[1′,2′:1,5]pyrrolo[2,3-d]pyrimidin]-2′-yl)amino)pyridin-3-yl)piperazin-1-yl)acetamido)propyl)amino)nicotinamide]: the activity at 0.01 µM is over 85% and the activity at 0.1 µM was over 85%.

With `CNc1ccc(C(=O)Nc2ccc(N(C)C)nn2)c(NCCNC(=O)CN2CCN(c3ccc(Nc4ncc5cc6n(c5n4)C4(CCCCC4)CNC6=O)nc3)CC2)n1` [CPD-640, N-(6-(dimethylamino)pyridazin-3-yl)-6-(methylamino)-2-((2-(2-(4-(6-((6′-oxo-7′,8′-dihydro-6′H-spiro[cyclohexane-1,9′-pyrazino[1′,2′:1,5]pyrrolo[2,3-d]pyrimidin]-2′-yl)amino)pyridin-3-yl)piperazin-1-yl)acetamido)ethyl)amino)nicotinamide], the activity at 0.01 µM was over 85% and the activity at 0.1 µM fell in the range of 55 to 85%.

With `CNc1ccc(C(=O)Nc2ccc(N(C)C)nn2)c(NCCCC(=O)NC2CCC(Nc3ncc4ccc(=O)n(C5CCCC5)c4n3)CC2)n1` (stereo not shown) [CPD-667, 2-((4-((4-((8-cyclopentyl-7-oxo-7,8-dihydropyrido[2,3-d]pyrimidin-2-yl)amino)cyclohexyl)amino)-4-oxobutyl)amino)-N-(6-(dimethylamino)pyridazin-3-yl)-6-(methylamino)nicotinamide], the activity at 0.01 µM is over 85% and the activity at 0.1 µM is over 85%.

`CNc1ccc(C(=O)Nc2ccc(N(C)C)nn2)c(NCCCCCCCCNC(=O)CN2CCN(Cc3ccc(Nc4ncc(F)c(-c5cc(F)c6nc(C)n(C(C)C)c6c5)n4)nc3)CC2)n1` [CPD-614, N-(6-(dimethylamino)pyridazin-3-yl)-2-((8-(2-(4-((6-((5-fluoro-4-(4-fluoro-1-isopropyl-2-methyl-1H-benzo[d]imidazol-6-yl)pyrimidin-2-yl)amino)pyridin-3-yl)methyl)piperazin-1-yl)acetamido)octyl)amino)-6-(methylamino)nicotinamide]: the activity at 0.01 µM was over 85% and the activity at 0.1 µM was over 85%.
